Assay results: the supplement of paper PMC11451515

Key:
Conditions in all cases: 48 h
[1] = tested on: SEM cells; assay: AUC of viability dose-response curve (% viability x log10 dose units); higher = less sensitive
Outline: (§1)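 Area under the curve was integrated by trapezoidal rule from a log-logistic fit of normalised viability, with curves exceeding full viability scaled and quality-control failures removed. The fit had four parameters over log10 doses. Viability came from CellTiter-Glo One luminescence, normalised per plate to DMSO and cell-free wells, after leukemia cells adapted to each medium (500 or 1000 cells/well, 1536-well plates) were exposed to library compounds in DMSO for 48 h at 37°C. The 11 threefold doses ran from 47 μM to 0.79 nM.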

[2] = tested on: P12-Ichikawa; assay: as above
Outline: as §1

[3] = tested on: NOMO1; assay: as above
Outline: as §1

[4] = tested on: SEM cells; assay: cell viability relative to DMSO control; higher = less cytotoxic
Outline: (§2)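 Leukemia cells (NOMO1 or SEM, 500 cells/well; P12-Ichikawa, 1000 cells/well) were seeded in 5 μl in 1536-well plates after at least four passages of adaptation to each medium. They received library compounds in DMSO by pin dosing, 11 threefold points from 47 μM to 0.79 nM. Luminescence with CellTiter-Glo One was read after 48 h at 37°C. Viability is stated per plate relative to DMSO wells, with cell-free wells as background.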

[5] = tested on: P12-Ichikawa; assay: as above
Outline: as §2

[6] = tested on: NOMO1; assay: as above
Outline: as §2

[7] = RPMI 5 mM glucose + 10% dialyzed FBS
[8] = HPLM + 10% dialyzed FBS, 0.000781 µM
[9] = HPLM + 10% dialyzed FBS, 0.00234 µM
[10] = HPLM + 10% dialyzed FBS, 0.00702 µM
[11] = HPLM + 10% dialyzed FBS, 0.0211 µM
[12] = HPLM + 10% dialyzed FBS, 0.0632 µM
[13] = HPLM + 10% dialyzed FBS, 0.19 µM
[14] = HPLM + 10% dialyzed FBS, 0.569 µM
[15] = HPLM + 10% dialyzed FBS, 1.71 µM
[16] = HPLM + 10% dialyzed FBS, 5.12 µM
[17] = HPLM + 10% dialyzed FBS, 15.4 µM
[18] = HPLM + 10% dialyzed FBS, 46.1 µM
[19] = RPMI 5 mM glucose + 10% FBS, 0.000781 µM
[20] = RPMI 5 mM glucose + 10% FBS, 0.00234 µM
[21] = RPMI 5 mM glucose + 10% FBS, 0.00702 µM
[22] = RPMI 5 mM glucose + 10% FBS, 0.0211 µM
[23] = RPMI 5 mM glucose + 10% FBS, 0.0632 µM
[24] = RPMI 5 mM glucose + 10% FBS, 0.19 µM
[25] = RPMI 5 mM glucose + 10% FBS, 0.569 µM
[26] = RPMI 5 mM glucose + 10% FBS, 1.71 µM
[27] = RPMI 5 mM glucose + 10% FBS, 5.12 µM
[28] = RPMI 5 mM glucose + 10% FBS, 15.4 µM
[29] = RPMI 5 mM glucose + 10% FBS, 46.1 µM
[30] = RPMI 5 mM glucose + 10% dialyzed FBS, 0.000781 µM
[31] = RPMI 5 mM glucose + 10% dialyzed FBS, 0.00234 µM
[32] = RPMI 5 mM glucose + 10% dialyzed FBS, 0.00702 µM
[33] = RPMI 5 mM glucose + 10% dialyzed FBS, 0.0211 µM
[34] = RPMI 5 mM glucose + 10% dialyzed FBS, 0.0632 µM
[35] = RPMI 5 mM glucose + 10% dialyzed FBS, 0.19 µM
[36] = RPMI 5 mM glucose + 10% dialyzed FBS, 0.569 µM
[37] = RPMI 5 mM glucose + 10% dialyzed FBS, 1.71 µM
[38] = RPMI 5 mM glucose + 10% dialyzed FBS, 5.12 µM
[39] = RPMI 5 mM glucose + 10% dialyzed FBS, 15.4 µM
[40] = RPMI 5 mM glucose + 10% dialyzed FBS, 46.1 µM

For `CC(C)c1ccc2c(c1)c(SC(C)(C)C)c(CC(C)(C)C(=O)[O-])n2Cc1ccc(Cl)cc1`, the “AUC of viability dose-response curve” value ([1]; HPLM + 10% dialyzed FBS) was 473, the “AUC of viability dose-response curve” value ([1]; RPMI 5 mM glucose + 10% FBS) was 456 and the “AUC of viability dose-response curve” value [1, 7] was 455. The “AUC of viability dose-response curve” value ([2]; HPLM + 10% dialyzed FBS) was 457, the “AUC of viability dose-response curve” value ([2]; RPMI 5 mM glucose + 10% FBS) was 445 and the “AUC of viability dose-response curve” value [2, 7] was 423. For the same compound, the “AUC of viability dose-response curve” value ([3]; HPLM + 10% dialyzed FBS) was 452, the “AUC of viability dose-response curve” value ([3]; RPMI 5 mM glucose + 10% FBS) was 436 and the “AUC of viability dose-response curve” value [3, 7] was 403. For the same compound, the cell viability [4, 8] was 104%, the cell viability [4, 9] was 96.6% and the cell viability [4, 10] was 107%. The cell viability [4, 11] was 100%, the cell viability [4, 12] was 106% and the cell viability [4, 13] was 95.3%. For the same compound, the cell viability [4, 14] was 103%, the cell viability [4, 15] was 101% and the cell viability [4, 16] was 106%. For the same compound, the cell viability [4, 17] was 107%, the cell viability [4, 18] was 83.2% and the cell viability [4, 19] was 101%. The cell viability [4, 20] was 84%, the cell viability [4, 21] was 109% and the cell viability [4, 22] was 99.7%. For the same compound, the cell viability [4, 23] was 96.9%, the cell viability [4, 24] was 102% and the cell viability [4, 25] was 89.9%. The cell viability [4, 26] was 101%, the cell viability [4, 27] was 93.5% and the cell viability [4, 28] was 89.5%. For the same compound, the cell viability [4, 29] was 75%, the cell viability [4, 30] was 98.9% and the cell viability [4, 31] was 103%. It also gave a cell viability [4, 32] of 106%, a cell viability [4, 33] of 107% and a cell viability [4, 34] of 97.6%. It also gave a cell viability [4, 35] of 104%, a cell viability [4, 36] of 91.6% and a cell viability [4, 37] of 88.5%. The cell viability [4, 38] was 92.5%, the cell viability [4, 39] was 97.5% and the cell viability [4, 40] was 89.9%. For the same compound, the cell viability [5, 8] was 98.5%, the cell viability [5, 9] was 98.9% and the cell viability [5, 10] was 99.7%. For the same compound, the cell viability [5, 11] was 103%, the cell viability [5, 12] was 97% and the cell viability [5, 13] was 98.4%. It also gave a cell viability [5, 14] of 94.8%, a cell viability [5, 15] of 93.4% and a cell viability [5, 16] of 90.3%. The cell viability [5, 17] was 87.5%, the cell viability [5, 18] was 90.8% and the cell viability [5, 19] was 96.3%. The cell viability [5, 20] was 91.5%, the cell viability [5, 21] was 100% and the cell viability [5, 22] was 96.2%. For the same compound, the cell viability [5, 23] was 96%, the cell viability [5, 24] was 96.3% and the cell viability [5, 25] was 92.6%. It also gave a cell viability [5, 26] of 92.3%, a cell viability [5, 27] of 88.2% and a cell viability [5, 28] of 85.3%. For the same compound, the cell viability [5, 29] was 89.9%, the cell viability [5, 30] was 87% and the cell viability [5, 31] was 93.6%. For the same compound, the cell viability [5, 32] was 90.3%, the cell viability [5, 33] was 88.8% and the cell viability [5, 34] was 94.8%. The cell viability [5, 35] was 88.3%, the cell viability [5, 36] was 93.8% and the cell viability [5, 37] was 89.3%. For the same compound, the cell viability [5, 38] was 81.7%, the cell viability [5, 39] was 82.2% and the cell viability [5, 40] was 84.5%. For the same compound, the cell viability [6, 8] was 110%, the cell viability [6, 9] was 98.7% and the cell viability [6, 10] was 110%. The cell viability [6, 11] was 104%, the cell viability [6, 12] was 109% and the cell viability [6, 13] was 101%. The cell viability [6, 14] was 111%, the cell viability [6, 15] was 95% and the cell viability [6, 16] was 82%. It also gave a cell viability [6, 17] of 95.1%, a cell viability [6, 18] of 87.8% and a cell viability [6, 19] of 84.2%. The cell viability [6, 20] was 103%, the cell viability [6, 21] was 92.8% and the cell viability [6, 22] was 90.4%. For the same compound, the cell viability [6, 23] was 88.9%, the cell viability [6, 24] was 96.9% and the cell viability [6, 25] was 105%. It also gave a cell viability [6, 26] of 87.9%, a cell viability [6, 27] of 86.3% and a cell viability [6, 28] of 85.4%. For the same compound, the cell viability [6, 29] was 85.1%, the cell viability [6, 30] was 90.5% and the cell viability [6, 31] was 91.5%. It also gave a cell viability [6, 32] of 91.9%, a cell viability [6, 33] of 91.6% and a cell viability [6, 34] of 81.5%. It also gave a cell viability [6, 35] of 87.7%, a cell viability [6, 36] of 79% and a cell viability [6, 37] of 81.4%. It also gave a cell viability [6, 38] of 78.5%, a cell viability [6, 39] of 81.6% and a cell viability [6, 40] of 75.5%.
